Results published in ChEMBL document CHEMBL1157376, “Plasmid-mediated quinolone resistance determinant QnrB4 identified in France in an Enterobacter cloacae clinical isolate coexpressing a QnrS1 determinant” (2007).
Values after ≈ are worked out from the molar mass of the structure shown.

Assays:
Assay type in all cases: functional
Escherichia coli [1] = assay: Antibacterial activity against Escherichia coli TOP10 by E-test
Escherichia coli [2] = assay: Antibacterial activity against Escherichia coli TOP10 containing pS1B plasmid expressing quinolone resistance determinant QnrS1 by E-test
Escherichia coli [3] = assay: Antibacterial activity against Escherichia coli TOP10 containing pS1A plasmid expressing quinolone resistance determinant QnrB4 by E-test
Enterobacter cloacae = assay: Antibacterial activity against Enterobacter cloacae S1 isolate expressing quinolone resistance determinant QnrB4 by E-test

| Structure (SMILES) | MIC (Escherichia coli [1]) | MIC (Escherichia coli [2]) | MIC (Escherichia coli [3]) | MIC (Enterobacter cloacae) |
| --- | --- | --- | --- | --- |
| C[C@@H]1CN(c2c(F)c(N)c3c(=O)c(C(=O)O)cn(C4CC4)c3c2F)C[C@H](C)N1 [SPARFLOXACIN] | < 0.01 µg/mL | 0.25 µg/mL (≈ 0.637 µM) | 0.03 µg/mL (≈ 0.0765 µM) | > 32 µg/mL |
| CCn1cc(C(=O)O)c(=O)c2cc(F)c(N3CCNCC3)cc21 [NORFLOXACIN] | 0.03 µg/mL (≈ 0.0939 µM) | 0.5 µg/mL (≈ 1.57 µM) | 0.25 µg/mL (≈ 0.783 µM) | > 32 µg/mL |
| COc1c(N2C[C@@H]3CCCN[C@@H]3C2)c(F)cc2c(=O)c(C(=O)O)cn(C3CC3)c12 [MOXIFLOXACIN] | < 0.01 µg/mL | 0.25 µg/mL (≈ 0.623 µM) | 0.12 µg/mL (≈ 0.299 µM) |  |
| CC1COc2c(N3CCN(C)CC3)c(F)cc3c(=O)c(C(=O)O)cn1c23 (stereo not drawn) [OFLOXACIN] |  | 0.25 µg/mL (≈ 0.692 µM) |  | > 32 µg/mL |
| CCn1cc(C(=O)O)c(=O)c2ccc(C)nc21 [NALIDIXIC ACID] | 1 µg/mL (≈ 4.31 µM) | 4 µg/mL (≈ 17.2 µM) | 2 µg/mL (≈ 8.61 µM) | > 256 µg/mL |
| O=C(O)c1cn(C2CC2)c2cc(N3CCNCC3)c(F)cc2c1=O [CIPROFLOXACIN] | < 0.01 µg/mL |  |  |  |
